Consider 19 compounds from patent US7250410B2, “Cyclic nucleotide phosphodiesterase inhibitors, preparation and uses thereof” (Via Pharmaceuticals, Inc., priority 2001, dated 2007).

A word on the IC50: it is the concentration that inhibits the measured activity by half. In general, inhibition refers to the drop in the measured response relative to a control, in per cent.

Values joined by “and” are separate entries in the source; they are usually repeats but may differ in a detail not shown here. Equal values may be shown once.

What all share (type): biochemical, bovine
One test addresses PDE4. The test can be described thus: Inhibition of PDE4, radioenzymatic phosphodiesterase assay. The conditions noted are these: for PDE4 percentage inhibition at 10 μM: compound at 10 μM. In short, it runs like this:
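PDE4 partially purified from bovine aortic media by 105,000 g centrifugation and anion-exchange chromatography with an NaCl gradient. Activity measured radioenzymatically: product nucleoside separated from nucleotides by anion exchange and counted by liquid scintillation.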

For another test, the system named is PDE1. Nature of the test: Selectivity: inhibition of PDE1, radioenzymatic phosphodiesterase assay. The arrangement: PDE1 percentage inhibition at 10 μM: unit: %. To be noted: Table 4 Selectivity; compound at 10 μM. Here is the method:
(§1) A 3 g segment of bovine aortic media cut into pieces with scissors was homogenized with an ultra-turrax then a potter glass/glass homogenizer in 7 volumes by weight of buffer A containing a protease inhibitor cocktail (20 mM Tris-HCl, 0.25 M saccharose, 2 mM magnesium acetate, 1 mM dithiothreitol, 5 mM EGTA, 2000 U/ml aprotinin, 10 mg/l leupeptin and 10 mg/l soya trypsic inhibitor). The homogenizate was centrifuged at 105,000 g for 1 hour. The supernatant was loaded on a DEAE-Sephacel column (15×1.6 cm) pre-equilibrated with buffer B (buffer A without the saccharose, EGTA and protease inhibitors). The column was washed until there was no detectable absorption at 280 nm, then eluted with a linear gradient of NaCl (0–0.5 M) in buffer B. 3-ml fractions were collected and enzyme activity was determined under the conditions described hereinafter to localize the different enzymes PDE1, PDE3, PDE4 and PDE5, which were aliquoted and frozen at −80° C. (Lugnier et al., Biochem. Phamacol., 35 (1986) 1746–1751). PDE2 was prepared from bovine endothelial cells by the same methods (Lugnier and Schini, Biochem. Pharmacol. 1990, 39; 75–84).
(§2) Cyclic nucleotide phosphodiesterase activity was determined by a radioenzymatic method using tritium-labelled cyclic GMP or AMP (1 μM) as substrate (Lugnier et al., 1986). ^3H-labelled adenosine or guanosine monophosphate formed by hydrolysis of the radiolabelled cyclic nucleotide was then converted to ^3H-labelled adenosine or guanosine in a second reaction with […] in excess. The nucleoside formed was separated from the nucleotides by anion exchange chromatography. Nucleoside radioactivity was determined by liquid scintillation counting. Enzymatic incubations were carried out under conditions allowing no more than 15% hydrolysis of the substrate; each point was performed in duplicate.
(§3) The activity of the compounds was evaluated on other phosphodiesterase isoforms, particularly basal state or calmodulin-activated PDE1 from vascular smooth muscle, basal state or cyclic GMP-activated PDE2 from vascular endothelial cells, PDE3 and PDE5 from vascular smooth muscle.
(§4) The results obtained are presented in Table 4 hereinafter and are expressed as the percentage inhibition of enzymatic activity produced by […] of the tested compound.

The next test concerns the target T1, PDE2 (Bos taurus, UniProt P14099).
T1 construct: PDE2 was prepared from bovine endothelial cells by the same methods; endogenous in cells; host or cells: bovine vascular endothelial cells, DEAE-Sephacel fraction
T1 sequence (P14099 1-921): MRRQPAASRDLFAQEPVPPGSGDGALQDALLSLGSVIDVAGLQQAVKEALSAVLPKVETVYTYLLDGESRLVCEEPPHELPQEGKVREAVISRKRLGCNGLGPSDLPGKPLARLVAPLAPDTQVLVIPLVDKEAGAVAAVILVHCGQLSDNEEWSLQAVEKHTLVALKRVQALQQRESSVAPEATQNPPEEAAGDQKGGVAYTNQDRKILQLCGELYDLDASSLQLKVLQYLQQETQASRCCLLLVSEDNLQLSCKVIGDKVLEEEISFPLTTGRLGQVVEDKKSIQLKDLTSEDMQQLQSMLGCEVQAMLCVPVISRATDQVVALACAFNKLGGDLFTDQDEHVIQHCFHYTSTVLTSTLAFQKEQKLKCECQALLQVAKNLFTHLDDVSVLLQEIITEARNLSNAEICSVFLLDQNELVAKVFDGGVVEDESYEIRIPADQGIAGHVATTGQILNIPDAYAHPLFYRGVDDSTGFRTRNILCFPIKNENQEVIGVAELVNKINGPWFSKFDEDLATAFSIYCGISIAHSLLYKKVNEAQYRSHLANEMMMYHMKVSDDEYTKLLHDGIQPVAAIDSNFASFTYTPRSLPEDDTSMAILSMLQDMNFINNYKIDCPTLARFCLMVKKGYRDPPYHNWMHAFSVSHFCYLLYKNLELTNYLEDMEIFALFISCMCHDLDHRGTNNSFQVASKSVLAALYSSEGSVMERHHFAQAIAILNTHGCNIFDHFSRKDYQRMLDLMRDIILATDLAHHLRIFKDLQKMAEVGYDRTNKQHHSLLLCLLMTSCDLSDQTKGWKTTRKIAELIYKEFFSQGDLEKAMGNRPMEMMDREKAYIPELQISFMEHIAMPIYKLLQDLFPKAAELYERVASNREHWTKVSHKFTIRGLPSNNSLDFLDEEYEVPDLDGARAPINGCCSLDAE
The test can be described thus: Selectivity: inhibition of PDE2, radioenzymatic phosphodiesterase assay. The conditions noted are these: Table 4 Selectivity; compound at 10 μM; read-out: PDE2 percentage inhibition at 10 μM. Here is the method: as §1, §2, §3, §4

The target in the next test is T2, PDE3 (Bos taurus, UniProt A0A3Q1M1E8).
T2 sequence (A0A3Q1M1E8 1-1126): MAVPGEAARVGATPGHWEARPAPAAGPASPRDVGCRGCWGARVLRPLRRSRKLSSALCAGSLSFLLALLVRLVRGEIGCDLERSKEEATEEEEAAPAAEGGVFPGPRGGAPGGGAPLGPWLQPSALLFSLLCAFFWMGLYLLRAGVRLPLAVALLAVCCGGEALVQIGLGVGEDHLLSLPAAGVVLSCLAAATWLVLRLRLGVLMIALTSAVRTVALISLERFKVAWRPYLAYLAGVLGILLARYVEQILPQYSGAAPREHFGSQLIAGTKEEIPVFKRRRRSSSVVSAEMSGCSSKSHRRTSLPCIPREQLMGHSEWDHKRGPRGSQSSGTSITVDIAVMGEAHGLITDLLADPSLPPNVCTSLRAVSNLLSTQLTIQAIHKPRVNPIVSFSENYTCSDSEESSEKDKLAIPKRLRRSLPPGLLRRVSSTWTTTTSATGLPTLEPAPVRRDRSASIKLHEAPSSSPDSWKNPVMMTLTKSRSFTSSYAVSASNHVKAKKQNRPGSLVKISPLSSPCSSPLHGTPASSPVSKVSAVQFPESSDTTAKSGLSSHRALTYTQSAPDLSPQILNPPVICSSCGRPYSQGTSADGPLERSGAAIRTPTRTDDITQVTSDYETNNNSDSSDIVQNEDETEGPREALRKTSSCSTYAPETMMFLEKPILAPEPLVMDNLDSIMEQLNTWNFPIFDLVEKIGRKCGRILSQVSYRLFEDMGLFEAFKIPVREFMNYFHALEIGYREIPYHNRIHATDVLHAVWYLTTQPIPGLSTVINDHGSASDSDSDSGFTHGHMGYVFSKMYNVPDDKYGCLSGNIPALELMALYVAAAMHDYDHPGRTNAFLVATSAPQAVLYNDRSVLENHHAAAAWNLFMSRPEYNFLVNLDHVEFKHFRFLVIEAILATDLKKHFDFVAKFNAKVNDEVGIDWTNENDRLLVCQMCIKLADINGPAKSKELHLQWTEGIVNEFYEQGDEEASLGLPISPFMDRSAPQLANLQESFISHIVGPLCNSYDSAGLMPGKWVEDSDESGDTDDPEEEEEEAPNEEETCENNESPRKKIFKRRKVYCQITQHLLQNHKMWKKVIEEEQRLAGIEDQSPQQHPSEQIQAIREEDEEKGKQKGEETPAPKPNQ
The test can be described thus: Selectivity: inhibition of PDE3, radioenzymatic phosphodiesterase assay. The conditions noted are these: read-out: PDE3 percentage inhibition at 10 μM. Here is the method:
as §1, §2, §3, §4

The mark [1] stands for this setting: Table 3, formula (II), 1 μM cyclic AMP.
Setting [2] is: Table 1, formula (III), 1 μM cyclic AMP.

Regarding `CCOc1cc2c(cc1OCC)N(CC)C(=O)CN=C2c1ccccc1` [IIbg, 7,8-diethoxy-1-ethyl-5-phenyl-1,3-dihydro-2H-1,4-benzodiazepin-2-one], the IC50 at PDE4 (setting [1]) was 900 nM and 1600 nM; against PDE4 (Table 4 Selectivity) it was 900 nM. In addition, in the test with PDE1, the “PDE1 percentage inhibition at 10 μM” value amounted to 47%. Also, the figures for the inhibition at 10 µM at PDE2 and on PDE3 were 20% and 40%, respectively. As to `COc1cccc(-c2ccc(C3=NN(C)C(=O)Cc4cc(OC)c(OC)cc43)cc2)c1` [IIIaj, 7,8-dimethoxy-1-[4-(3-methoxyphenyl)phenyl]-3-methyl-3,5-dihydro-4H-2,3-benzodiazepin-4-one], at PDE4 (setting [2]), 2700 nM corresponded to half-maximal inhibition (IC50).

`COc1cc2c(cc1OC)C(c1ccc(-c3cccc(C(C)=O)c3)cc1)=NN(C)C(=O)C2` [IIIak, 1-[4-(3-acetylphenyl)phenyl]-7,8-dimethoxy-3-methyl-3,5-dihydro-4H-2,3-benzodiazepin-4-one] had an IC50 at PDE4 (setting [2]) of 1800 nM. `COc1ccc2c(c1)NC(=O)CN=C2c1ccccc1` [XXIIan, 8-methoxy-5-phenyl-1,3-dihydro-2H-1,4-benzodiazepin-2-one]: in the test on PDE4 (Table 2, formula (XXII)), the “PDE4 percentage inhibition at 10 μM” value was determined as 12.1%. Consider `COc1cc2c(cc1OC)N(C)C(=O)CN=C2c1cc2ccccc2o1` [IIag, 5-(2-benzo[b]furyl)-7,8-dimethoxy-1-methyl-1,3-dihydro-1,4-benzodiazepin-2-one], for which it took 4800 nM to reach half-maximal inhibition against PDE4 (setting [1]) (IC50). As to `COc1cc2c(cc1OC)C(c1ccccc1)=NC(C)C(=O)N2` (centres unmarked) [XXIIaq, 7,8-dimethoxy-3-methyl-5-phenyl-1,3-dihydro-2H-1,4-benzodiazepin-2-one], the “PDE4 percentage inhibition at 10 μM” value in the test on PDE4 (Table 2, formula (XXII)) worked out at 26.2%. In the case of `COc1cc2c(cc1OC)C(c1ccccc1)=NC(c1ccccc1CCNC(C)=O)C(=O)N2` (centres unmarked) [IIcm, N-[2-(7,8-dimethoxy-2-oxo-5-phenyl-2,3-dihydro-1H-1,4-benzodiazepin-3-yl)benzyl]methylacetamide], the IC50 against PDE4 (setting [1]) came to 1900 nM. Consider `CCN1C(=O)C(Cc2cccc(CN)c2)N=C(c2ccccc2)c2cc(OC)c(OC)cc21` (centres unmarked) [IIct, 3-[3-(aminomethyl)benzyl]-1-ethyl-7,8-dimethoxy-5-phenyl-1,3-dihydro-2H-1,4-benzodiazepin-2-one], for which the “PDE4 percentage inhibition at 10 μM” value in the test with PDE4 (Table 3, formula (II)) worked out at 18%. Still for that read-out and setting: to `COc1ccc2c(c1)C(c1ccccc1)=NCC(=O)N2C` [IIdl, 7-methoxy-1-methyl-5-phenyl-1,3-dihydro-2H-1,4-benzodiazepin-2-one] belongs 34.6%. At PDE4 (setting [1]), `CCOc1cc2c(cc1OC)C(c1ccccc1)=NC(Cc1ccccc1C#N)C(=O)N2C` (centres unmarked) [IIdg, 2-[(8-ethoxy-7-methoxy-1-methyl-2-oxo-5-phenyl-2,3-dihydro-1H-1,4-benzodiazepin-3-yl)methyl]benzonitrile] displayed an IC50 of 1100 nM.

As to `COc1cc2c(cc1OC)C(c1ccc(-c3cccs3)cc1)=NN(C)C(=O)C2` [IIIau, 7,8-dimethoxy-3-methyl-1-[4-(2-thienyl)phenyl]-3,5-dihydro-4H-2,3-benzodiazepin-4-one], the IC50 on PDE4 (setting [2]) was determined as 3800 nM. Regarding `CCN1C(=O)C(Cc2ccccc2CN)N=C(c2ccccc2)c2cc(OC)c(OC)cc21` (centres unmarked) [IIcg, 3-(2-aminomethylbenzyl)-7,8-dimethoxy-1-ethyl-5-phenyl-1,3-dihydro-2H-1,4-benzodiazepin-2-one], half-maximal inhibition at PDE4 (setting [1]) (IC50) required 6700 nM. Regarding `COc1cc2c(cc1OC)N(C)C(=O)CN=C2c1cc2ccccc2[nH]1` [IIaq, 5-(2-indolyl)-7,8-dimethoxy-1-methyl-1,3-dihydro-1,4-benzodiazepin-2-one], inhibition on PDE4 (setting [1]) was half-maximal at 7900 nM (IC50).

For the compound `COc1cc2c(cc1OC)C(c1ccccc1)=NC(CCSC)C(=O)N2` (centres unmarked) [XXIIat, 7,8-dimethoxy-3-(2-methylthioethyl)-5-phenyl-1,3-dihydro-2H-1,4-benzodiazepin-2-one], in the test with PDE4 (Table 2, formula (XXII)), the “PDE4 percentage inhibition at 10 μM” value is 29%. In the case of `COc1cc2c(cc1OC)C(c1ccc(-c3ccc(C(C)=O)cc3)cc1)=NN(C)C(=O)C2` [IIIal, 1-[4-(4-acetylphenyl)phenyl]-7,8-dimethoxy-3-methyl-3,5-dihydro-4H-2,3-benzodiazepin-4-one], the IC50 against PDE4 (setting [2]) stood at 2400 nM. For the compound `CCOc1cc2c(cc1OC)NC(=O)CN=C2c1ccccc1` [XXIIbc, 5-phenyl-7-ethoxy-8-methoxy-1,3-dihydro-2H-1,4-benzodiazepin-2-one], in the test on PDE4 (Table 2, formula (XXII)), the “PDE4 percentage inhibition at 10 μM” value is listed as 10%.

On PDE4 (setting [2]), `COc1cc2c(cc1OC)C(c1ccc(-c3cccc(C(F)(F)F)c3)cc1)=NN(C)C(=O)C2` [IIIap, 1-[4-[3-(trifluoromethyl)phenyl]phenyl]-7,8-dimethoxy-3-methyl-3,5-dihydro-4H-2,3-benzodiazepin-4-one] had an IC50 of 1900 nM. On the same count and under the same terms, the same measure for `COc1cc2c(cc1OC)C(c1ccc(-c3ccccc3C)cc1)=NN(C)C(=O)C2` [IIIaq, 7,8-dimethoxy-3-methyl-1-[4-(2-methylphenyl)phenyl]-3,5-dihydro-4H-2,3-benzodiazepin-4-one]: 1900 nM. For `COc1cc2c(cc1OC)N(C)C(=O)CN=C2c1ccc2cc(OCc3ccccc3)ccc2c1` [IIao, 5-(6-benzyloxy-2-naphthyl)-7,8-dimethoxy-1-methyl-1,3-dihydro-1,4-benzodiazepin-2-one], on PDE4 (setting [1]), the midpoint of inhibition, the IC50, lay at 1600 nM.
